The results in this text go back to patent publication US9708314B2, “Heterocyclic amide compound” (NISSAN CHEMICAL INDUSTRIES, LTD., priority 2013, dated 2017).

Data set [1] concerns Echinochloa oryzacola Vasing. Put plainly: Test Example 1: herbicidal activity, application before weed generation in submerged conditions. In kind it is in vivo. The settings on record: Application herbicide amount 320 g/ha; Seventeenth Table. In a few lines: (§1)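 Rating, on a six-step scale from almost no effect (0) to almost completely withered (5), was made three weeks after pre-emergence treatment. Treatment was surface application to flooded pots at g/ha rates, with plants kept at 25° C. to 30° C.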

For another data set, the system named is Monochoria vaginalis. The data set is described as above. Particulars: Application herbicide amount 320 g/ha; Seventeenth Table. It is filed as in vivo. An outline of the steps: as §1
A further data set deals with Scirpus juncoides. The description is as above. It is filed as in vivo. The settings on record: Application herbicide amount 320 g/ha; Seventeenth Table. An outline of the steps:
as §1

Another data set deals with Cyperus difformis. The data set is described as follows: Test Example 3: herbicidal effect by application to foliage (Wagner pot, water depth 0.1-0.5 cm). In kind it is in vivo. Particulars: Nineteenth Table; application to foliage; application herbicide amount 320 g/ha. In a few lines:
(§2)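 Wagner pot foliar test: sow, grow 14 d (25–30 °C), spray diluted emulsion at set g/ha, score after 3 wk; 0 ≤5%, 5 ≥90% herbicidal ratio.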

The test system of data set [2] is Echinochloa crus-galli var. crus-galli. The data set is described as above. It is filed as in vivo. Particulars: Nineteenth Table; application to foliage; application herbicide amount 320 g/ha. In a few lines: as §2
The next data set concerns Leptochloa chinensis. The data set is described as above. It is filed as in vivo. Particulars: Nineteenth Table; application to foliage; application herbicide amount 320 g/ha. In a few lines:
as §2

A further data set relates to Glycine max. Put plainly: Test Example 4: effect on crop by application to foliage (diluvial soil, plastic box). It is filed as in vivo. The settings on record: for d: effect on crop, Glycine max: application to foliage, application herbicide amount 320 g/ha; for d (Glycine max) effect on crop grade: foliage application. In a few lines:
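Emulsion-formulated compound, diluted to a predetermined g/ha dose, applied by small sprayer to leaves and stems of 14-day-old seedlings grown in sterilized diluvial soil. Effect rated on 0–5 herbicidal-ratio scale three weeks on.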

Setting [3] is: Application herbicide amount 320 g/ha.

Regarding `COCc1nnc2c(C(=O)Nc3nnnn3C)ccc(C(F)(F)F)n12` [2-010, 3-(Methoxymethyl)-N-(1-methyl-1H-tetrazol-5-yl)-5-(trifluoromethyl)-[1,2,4]triazol o[4,3-a]pyridine-8-carboxamide], the melting point (usually the temperature, or range, at which the solid turns liquid) lay within 205 to 209 °C. In addition, the “A: Echinochloa oryzicola Vasing. (herbicidal effect grade)” value in data set [1] is recorded as 5 (Herbicidal ratio of 90% or more (almost completely withered)). Besides, the “C: Monochoria vaginalis (herbicidal effect grade)” value (“C: Monochoria vaginalis” for short) with Monochoria vaginalis was 4 (Herbicidal ratio of 70% or more and less than 90%). In the data set with Scirpus juncoides, the “B: Scirpus juncoides (herbicidal effect grade)” value (“B: Scirpus juncoides” for short) was 5 (Herbicidal ratio of 90% or more (almost completely withered)). The “E (herbicidal effect grade)” value in the data set with Cyperus difformis is reported as 5 (Herbicidal ratio of 90% or more (almost completely withered)). For the same compound, the “H (herbicidal effect grade)” value in data set [2] was 5 (Herbicidal ratio of 90% or more (almost completely withered)). Also, the “D (herbicidal effect grade)” value in the data set with Leptochloa chinensis is given as 5 (Herbicidal ratio of 90% or more (almost completely withered)). Moreover, the “d: effect on crop, Glycine max” value in the data set with Glycine max is 4 (Herbicidal ratio of 70% or more and less than 90%).
In the case of `Cc1nnc(NC(=O)c2ccc(C(F)(F)F)n3c(N(C)CCC#N)nnc23)o1` [1-153], the “A: Echinochloa oryzicola Vasing. (herbicidal effect grade)” value in data set [1] was 3 (Herbicidal ratio of 40% or more and less than 70%). Besides, in the data set on Monochoria vaginalis, the “C: Monochoria vaginalis” value was 4 (Herbicidal ratio of 70% or more and less than 90%). In addition, the “B: Scirpus juncoides” value in the data set with Scirpus juncoides is 3 (Herbicidal ratio of 40% or more and less than 70%). Besides, in the data set on Cyperus difformis, the “E (herbicidal effect grade)” value was 3 (Herbicidal ratio of 40% or more and less than 70%). For the same compound, in data set [2], the “H (herbicidal effect grade)” value was 5 (Herbicidal ratio of 90% or more (almost completely withered)). Further, the “D (herbicidal effect grade)” value in the data set on Leptochloa chinensis is on record as 5 (Herbicidal ratio of 90% or more (almost completely withered)). Further, the “d (Glycine max) effect on crop grade” value with Glycine max (setting [3]) is 5 (Herbicidal ratio of 90% or more (almost completely withered)).
As to `CC(C)c1nnc2c(C(=O)N(C)c3nnnn3C)ccc(C(F)(F)F)n12` [2-023], in data set [1], the “A: Echinochloa oryzicola Vasing. (herbicidal effect grade)” value was 2 (Herbicidal ratio of 20% or more and less than 40%). Besides, the “C: Monochoria vaginalis” value in the data set on Monochoria vaginalis was 0 (Herbicidal ratio of 5% or less (almost no effect)). Also, the “B: Scirpus juncoides” value with Scirpus juncoides is 1 (Herbicidal ratio of 5% or more and less than 20%). For the same compound, in the data set on Cyperus difformis, the “E (herbicidal effect grade)” value was 0 (Herbicidal ratio of 5% or less (almost no effect)). Besides, the “H (herbicidal effect grade)” value in data set [2] is 4 (Herbicidal ratio of 70% or more and less than 90%). For the same compound, the “D (herbicidal effect grade)” value in the data set with Leptochloa chinensis is 1 (Herbicidal ratio of 5% or more and less than 20%). Besides, in the data set with Glycine max, the “d: effect on crop, Glycine max” value was 1 (Herbicidal ratio of 5% or more and less than 20%).
In the case of `CCN(C)c1nnc2c(C(=O)Nc3nnco3)ccc(C(F)(F)F)n12` [1-137], in data set [1], the “A: Echinochloa oryzicola Vasing. (herbicidal effect grade)” value is 5 (Herbicidal ratio of 90% or more (almost completely withered)). Also, the “C: Monochoria vaginalis” value in the data set on Monochoria vaginalis is given as 5 (Herbicidal ratio of 90% or more (almost completely withered)). In addition, the “B: Scirpus juncoides” value with Scirpus juncoides is reported as 5 (Herbicidal ratio of 90% or more (almost completely withered)). Besides, the “E (herbicidal effect grade)” value in the data set on Cyperus difformis was 4 (Herbicidal ratio of 70% or more and less than 90%). Further, the “H (herbicidal effect grade)” value in data set [2] is reported as 5 (Herbicidal ratio of 90% or more (almost completely withered)). Besides, in the data set on Leptochloa chinensis, the “D (herbicidal effect grade)” value is listed as 5 (Herbicidal ratio of 90% or more (almost completely withered)). Also, in the data set with Glycine max (setting [3]), the “d (Glycine max) effect on crop grade” value is 4 (Herbicidal ratio of 70% or more and less than 90%).
On to `Cc1nnc(NC(=O)c2ccc(C(F)(F)F)n3c(SCC4CCCO4)nnc23)o1` (stereo not drawn) [1-116], for which the “A: Echinochloa oryzicola Vasing. (herbicidal effect grade)” value in data set [1] is 5 (Herbicidal ratio of 90% or more (almost completely withered)). In addition, in the data set on Monochoria vaginalis, the “C: Monochoria vaginalis” value was 2 (Herbicidal ratio of 20% or more and less than 40%). In addition, the “B: Scirpus juncoides” value with Scirpus juncoides was 4 (Herbicidal ratio of 70% or more and less than 90%). Besides, the “E (herbicidal effect grade)” value in the data set with Cyperus difformis is on record as 0 (Herbicidal ratio of 5% or less (almost no effect)). For the same compound, the “H (herbicidal effect grade)” value in data set [2] was 4 (Herbicidal ratio of 70% or more and less than 90%). For the same compound, the “D (herbicidal effect grade)” value in the data set with Leptochloa chinensis was 4 (Herbicidal ratio of 70% or more and less than 90%). For the same compound, the “d (Glycine max) effect on crop grade” value in the data set with Glycine max (setting [3]) is 3 (Herbicidal ratio of 40% or more and less than 70%).
`Cc1nnc(NC(=O)c2ccc(C(F)(F)F)n3c(-c4cc5ccccc5n4C)nnc23)o1` [1-059]: in data set [1], the “A: Echinochloa oryzicola Vasing. (herbicidal effect grade)” value is 2 (Herbicidal ratio of 20% or more and less than 40%). The “C: Monochoria vaginalis” value in the data set with Monochoria vaginalis is 2 (Herbicidal ratio of 20% or more and less than 40%). Further, the “B: Scirpus juncoides” value in the data set on Scirpus juncoides is 3 (Herbicidal ratio of 40% or more and less than 70%). Besides, in the data set with Cyperus difformis, the “E (herbicidal effect grade)” value was 3 (Herbicidal ratio of 40% or more and less than 70%). Also, the “H (herbicidal effect grade)” value in data set [2] is listed as 0 (Herbicidal ratio of 5% or less (almost no effect)). For the same compound, the “D (herbicidal effect grade)” value with Leptochloa chinensis was 3 (Herbicidal ratio of 40% or more and less than 70%). Also, the c with Glycine max (Application herbicide amount 320 g/ha, effect on crop) was 0 (Herbicidal ratio of 5% or less (almost no effect)).
In the case of `Cc1nnc(NC(=O)c2ccc(C(F)(F)F)n3c(SCc4ccccc4)nnc23)o1` [1-113], the “A: Echinochloa oryzicola Vasing. (herbicidal effect grade)” value in data set [1] was 4 (Herbicidal ratio of 70% or more and less than 90%). Moreover, the “C: Monochoria vaginalis” value in the data set on Monochoria vaginalis was 2 (Herbicidal ratio of 20% or more and less than 40%). Moreover, the “B: Scirpus juncoides” value in the data set with Scirpus juncoides is 3 (Herbicidal ratio of 40% or more and less than 70%). Moreover, in the data set on Cyperus difformis, the “E (herbicidal effect grade)” value was 3 (Herbicidal ratio of 40% or more and less than 70%). Also, the “H (herbicidal effect grade)” value in data set [2] was 4 (Herbicidal ratio of 70% or more and less than 90%). For the same compound, in the data set on Leptochloa chinensis, the “D (herbicidal effect grade)” value was 3 (Herbicidal ratio of 40% or more and less than 70%). In addition, in the data set with Glycine max (setting [3]), the “d (Glycine max) effect on crop grade” value was 0 (Herbicidal ratio of 5% or less (almost no effect)).
For `Cn1nnnc1NC(=O)c1ccc(C(F)(F)F)n2c(COCC(F)(F)F)nnc12` [2-015], the “A: Echinochloa oryzicola Vasing. (herbicidal effect grade)” value in data set [1] is 5 (Herbicidal ratio of 90% or more (almost completely withered)). Also, the “C: Monochoria vaginalis” value in the data set on Monochoria vaginalis was 5 (Herbicidal ratio of 90% or more (almost completely withered)). In the data set with Scirpus juncoides, the “B: Scirpus juncoides” value was 5 (Herbicidal ratio of 90% or more (almost completely withered)). In addition, the “E (herbicidal effect grade)” value in the data set with Cyperus difformis is listed as 5 (Herbicidal ratio of 90% or more (almost completely withered)). The “H (herbicidal effect grade)” value in data set [2] is recorded as 5 (Herbicidal ratio of 90% or more (almost completely withered)). Further, the “D (herbicidal effect grade)” value in the data set with Leptochloa chinensis is recorded as 5 (Herbicidal ratio of 90% or more (almost completely withered)). Moreover, the “d: effect on crop, Glycine max” value in the data set with Glycine max is 2 (Herbicidal ratio of 20% or more and less than 40%).
